Among the data in patent publication US20230108125A1, “SMALL MOLECULE COMPOUNDS” (Apertor Pharmaceuticals, Inc., priority 2021, published 2023) are MIC values, retold here.

For the assay, the system named is Saccharomyces cerevisiae BY4742. Description: Anti-yeast activity assay (minimum inhibitory concentration). Format: cell-based. Particulars: YPD media, 30° C., 16 hours, lowest concentration with no obvious culture growth, triplicate, read-out: MIC against Saccharomyces cerevisiae BY4742. The procedure: A single colony of Saccharomyces cerevisiae BY4742 was inoculated into 2 mL YPD media in a 5 mL falcon tube to grow overnight at 30° C. The overnight culture was inoculated into 5 mL YPD media in a glass tube at OD600=0.1, and the new culture was grown at 30° C. until OD600 reached 0.5. The culture was then diluted to OD600=0.01 and aliquoted into 96-well plates at 100 μL per well. The compound was dissolved in ethanol at 75 μM. Three-fold serial dilutions were conducted for the Compound 10 times using ethanol, respectively. 4 μL of each concentration compound solution was added and mixed with 384 μL YPD media. 100 μL of the YPD media solutions were mixed with the Saccharomyces cerevisiae cultures in 96-well plates by pipette, respectively. The plates were incubated at 30° C. for 16 hours without shaking. The lowest Compound concentrations in wells that have no obvious culture growth were defined as the minimum inhibitory concentrations (MICs). The assays were conducted in triplicate.

A word on the MIC: it is the lowest concentration that inhibits growth of the organism. Regarding `CO[C@@H]1/C(C)=C/C=C/C=C/[C@@H](C)C[C@@H](C)C(=O)[C@H](OC)[C@H](O)/C(C)=C/[C@@H](C)C(=O)C[C@@H]([C@H](C)C[C@@H]2CC[C@@H](O)[C@H](OC)C2)OC(=O)[C@@H]2CCCCN2C(=O)C(=O)[C@]2(O)O[C@@H](CC[C@H]2C)[C@@H]1C` [Compound 15, (3S,6R,7E,9R,10R,12R,14S,15E,17E,19E,21S,22S,23S,26R,27R,34aS)-9,27-dihydroxy-3-((R)-1-((1S,3R,4R)-4-hydroxy-3-methoxycyclohexyl)propan-2-yl)-10,21-dimethoxy-6,8,12,14,20,22,26-heptamethyl-9,10,12,13,14,21,22,23,24,25,26,27,32,33,34,34a-hexadecahydro-3H-23,27-epoxypyrido[2,1-c][1]oxa[4]azacyclohentriacontine-1,5,11,28,29(4H,6H,31H)-pentaone], the MIC was under 0.0556 µM.
In the case of `CO[C@H]1C[C@@H]2CCC[C@@](O)(O2)C(=O)C(=O)N2CCCC[C@H]2C(=O)O[C@H]([C@H](C)C[C@@H]2CC[C@@H](O)[C@H](OC)C2)CC(=O)[C@H](C)/C=C(\C)[C@@H](O)[C@@H](OC)C(=O)[C@H](C)C[C@H](C)/C=C/C=C/C=C/1C` [Compound 12, (3S,6R,7E,9R,10R,12R,14S,15E,17E,19E,21S,23S,27R,34aS)-9,27-dihydroxy-3-((R)-1-((1S,3R,4R)-4-hydroxy-3-methoxycyclohexyl)propan-2-yl)-10,21-dimethoxy-6,8,12,14,20-pentamethyl-9,10,12,13,14,21,22,23,24,25,26,27,32,33,34,34a-hexadecahydro-3H-23,27-epoxypyrido[2,1-c][1]oxa[4]azacyclohentriacontine-1,5,11,28,29(4H,6H,31H)-pentaone], the MIC is under 0.0556 µM.
On to `CO[C@H]1C[C@@H]2CC[C@@H](C)[C@@](O)(O2)C(=O)C(=O)N2CCCC[C@H]2C(=O)O[C@H]([C@H](C)C[C@@H]2CC[C@@H](O)[C@H](OC)C2)CC(=O)C/C=C(\C)[C@@H](O)[C@@H](OC)C(=O)[C@H](C)C[C@H](C)/C=C/C=C/C=C/1C` [Compound 10, (3S,7E,9R,10R,12R,14S,15E,17E,19E,21S,23S,26R,27R,34aS)-9,27-dihydroxy-3-((R)-1-((1S,3R,4R)-4-hydroxy-3-methoxycyclohexyl)propan-2-yl)-10,21-dimethoxy-8,12,14,20,26-pentamethyl-9,10,12,13,14,21,22,23,24,25,26,27,32,33,34,34a-hexadecahydro-3H-23,27-epoxypyrido[2,1-c][1]oxa[4]azacyclohentriacontine-1,5,11,28,29(4H,6H,31H)-pentaone], for which the MIC is under 0.0556 µM.
